Data on nine compounds can be found in ChEMBL document CHEMBL2040823, “A novel class of small-molecule caspase-3 inhibitors prepared by multicomponent reactions” (Eur J Med Chem, 2012).

Data set [1] is described as follows: Octanol-water partition coefficient, log P of the compound by Shake-flask method. Format: physicochemical.
The next data set addresses T1, Caspase-3 (Homo sapiens, UniProt P42574).
T1 sequence (P42574 whole entry): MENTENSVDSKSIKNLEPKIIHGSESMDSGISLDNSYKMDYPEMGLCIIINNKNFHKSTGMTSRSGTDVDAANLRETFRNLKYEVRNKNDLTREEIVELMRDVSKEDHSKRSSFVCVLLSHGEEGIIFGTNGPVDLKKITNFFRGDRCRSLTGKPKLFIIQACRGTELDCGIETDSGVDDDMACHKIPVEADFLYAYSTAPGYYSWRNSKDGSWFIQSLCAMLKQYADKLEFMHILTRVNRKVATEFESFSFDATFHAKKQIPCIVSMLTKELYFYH
Description: Inhibition of human recombinant caspase-3 catalytic domain using Ac-DEVD-pNA as substrate preincubated for 30 mins before substrate addition measured after 3 mins.

Turning to `CCOC(=O)C1=C(Nc2cccc3ccccc23)C(=O)N(C2CCCCC2)C1c1ccccc1` (centres undefined), the logP (in general, the decadic logarithm of the partition coefficient of the neutral form, usually between octanol and water) in data set [1] was found to be 2.

With `CCOC(=O)C1=C(Nc2ccc(F)cc2)C(=O)N(c2ccc(F)cc2)C1`, the IC50 – broadly, the concentration that inhibits the measured activity by half – on Caspase-3 was > 45 µM.

`CCOC(=O)C1=C(NC2CCCCC2)C(=O)N(c2ccc(Br)cc2)C1` came in with a log partition coefficient (logP) in data set [1] of 1.8.

On to `CCOC(=O)C1=C(Nc2ccc(Br)cc2)C(=O)N(C2CCCCC2)C1c1ccccc1` (centres undefined), for which the logP in data set [1] is 2.25.

For `CCCNC1=C(C(=O)OC)CN(c2ccccc2)C1=O`, on Caspase-3, the IC50 was > 45 µM.

Regarding `CCOC(=O)C1=C(Nc2ccc(Br)cc2)C(=O)N(c2ccc(Br)cc2)C1`, in data set [1], the logP worked out at 1.75.

As to `CCCN1C(=O)C(Nc2ccc(Br)cc2)=C(C(=O)OCC)C1c1ccccc1` (centres undefined), the IC50 at Caspase-3 is > 45 µM.

In the case of `CCOC(=O)C1=C(Nc2ccccc2)C(=O)N(c2ccccc2)C1`, at Caspase-3, the IC50 is > 45 µM.

As for `CCOC(=O)C1=C(NC2CCCCC2)C(=O)N(C2CCCCC2)C1`, at Caspase-3, the IC50 is > 45 µM.
